Earlier results in patent publication US20030232417A1, “Process” (priority 2001, published 2003).

Test system: fungi
Conditions: limited number of fungi tested

With `O=C1C=CCOC1(O)CO` (stereo not shown) [microthecin, 2-hydroxy-2-(hydroxymethyl)-2H-pyran-3(6H)-one] as the compound, how does the antifungal activity read?
The antifungal activity was “antifungal against a limited number of fungi tested”.
